From US12122750B2, “AT2R antagonists and uses thereof” (Eli Lilly and Company, priority 2022, dated 2024)
Values belong to the molecule of their own block, whether it stands above or below them.

Experiments:
[1] = biological target: recombinant human angiotensin-II receptor subtype 2 (hAT2R) (Homo sapiens (Human), UniProt P50052); assay: Competitive radioligand binding assay (SPA), hAT2R HEK293 membranes; settings: [125I]-Tyr4-Angiotensin-II, read-out: AT2R Ki
Method in brief: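 SPA competition binding on membranes from HEK293 cells stably transfected with hAT2R (0.25 μg/well, with 0.1 mg/well PVT-WGA beads) in 50 mM Tris-HCl pH 7.5, 150 mM NaCl, 0.1% fatty-acid-free BSA. Ten-point four-fold dilution curves ran from 50 μM top final concentration. Bound radioactivity was counted (CPM) after 10 h at room temperature.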

[2] = biological target: recombinant human angiotensin-II receptor subtype I (hAT1R) (Homo sapiens (Human), UniProt P30556); assay: Competitive radioligand binding assay (SPA), hAT1R/CHO membranes; settings: [125I]-Tyr4-Angiotensin-II, read-out: AT1R Ki
recombinant human angiotensin-II receptor subtype I (hAT1R), sequence (P30556 whole entry): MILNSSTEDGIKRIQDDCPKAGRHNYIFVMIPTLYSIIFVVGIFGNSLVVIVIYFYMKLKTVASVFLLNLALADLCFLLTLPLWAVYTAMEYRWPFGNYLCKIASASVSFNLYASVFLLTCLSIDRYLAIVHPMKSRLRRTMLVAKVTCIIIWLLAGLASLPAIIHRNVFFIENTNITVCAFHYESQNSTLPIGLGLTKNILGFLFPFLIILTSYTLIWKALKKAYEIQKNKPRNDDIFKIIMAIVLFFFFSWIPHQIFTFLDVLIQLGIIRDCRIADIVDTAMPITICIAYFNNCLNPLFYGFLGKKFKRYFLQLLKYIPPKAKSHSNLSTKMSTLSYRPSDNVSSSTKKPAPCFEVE
Method: Membranes hATIR/CHO were Purchased from PerkinElmer, Inc.
Cellular membranes prepared from Chinese hamster ovary (CHO) cells which expressed recombinant human angiotensin-II receptor subtype I (hAT1R), were purchased from PerkinElmer (Catalog Number ES-072-M400UA).
(§1) Receptor Binding Protocol
(§2) The assays were performed with a scintillation proximity assay (SPA) method using polyvinyltoluene (PVT) wheat germ agglutinin-coupled SPA beads (Perkin Elmer Cat. #RPNQ0001). Assay buffer containing BSA (50 mM Tris-HCl, pH 7.5, 150 mM NaCl, 0.1% w/v fatty-acid free BSA) was used for preparing radioligand, membrane and SPA bead reagent dilution to working stock concentrations. Reference control and test compounds were diluted to obtain ten-point concentration response curves using a four-fold serial dilution protocol onto assay plates, dispensed acoustically from DMSO stock using automated ECHO instrument technology (Labcyte, Inc.). Concentration response curves were routinely generated with the highest final assay concentration for the reference angiotensin-II control at 50 nM, and the highest final assay concentration for the test compounds at 50 μM. […] The hAT2R membrane was combined with PVT-WGA SPA beads to obtain a final assay concentration of 0.25 μg/well hAT2R membrane+0.1 mg/well PVT-WGA SPA bead. And the hAT1R membrane PVT-WGA SPA bead final concentrations was 0.5 μg/well hAT1R membrane+0.1 mg/well PVT-WGA SPA bead. […] For all assays, radioligand addition was followed by the addition of membrane-SPA bead mixture, i.e., the hAT2R membrane-SPA bead mixture (30 μL), the rAT2R membrane-SPA bead mixture, or the AT1R membrane-SPA bead mixture (30 μL) into the assay plate. All dispensing steps were added using a Multiflo FX (Biotek, Inc.) bulk dispensing instrument. After reagent addition steps, assay plates were sealed, and plate contents mixed for one minute on a benchtop micro-plate shaker. Following a 10-hour incubation at room temperature to allow for bead settling and radioligand binding, bound radioactivity was quantitated using a Microbeta Trilux scintillation counter (Perkin Elmer) and expressed as counts per minute (CPM). The unlabeled angiotensin-II control was included on each plate as an experimental assay reference.
(§3) Compounds were tested in a 10-point concentration response curve (CRC) format, with each plate containing the positive control angiotensin-II positive reference compound, and experimental compounds. Maximum binding response (Max) was determined in 32 control wells per plate using assay buffer treatment only, and the minimum binding controls or nonspecific binding response (Min) was also determined in 32 wells per plate by the treatment with 50 nM angiotensin-II. All test sample concentration responses were normalized to the control response and calculated as a percent of the maximal response after correcting for nonspecific binding as shown below: % Specific inhibition=100%−[(CPM−Min)/(Max−Min)×100%]
(§4) Percent specific binding (y-axis) was plotted versus the log concentration of compound (x-axis).
Binding affinities for compounds of the present disclosure were determined according to the assay described herein.
Binding affinities for compounds of the present disclosure were determined according to the assay described above.

rAT2R = rAT2R (Rattus norvegicus (Rat), UniProt P35351); assay: Rat binding affinity, competitive radioligand binding assay (SPA), rAT2R HEK293 membranes; settings: rat AT2R
rAT2R, sequence (P35351 whole entry): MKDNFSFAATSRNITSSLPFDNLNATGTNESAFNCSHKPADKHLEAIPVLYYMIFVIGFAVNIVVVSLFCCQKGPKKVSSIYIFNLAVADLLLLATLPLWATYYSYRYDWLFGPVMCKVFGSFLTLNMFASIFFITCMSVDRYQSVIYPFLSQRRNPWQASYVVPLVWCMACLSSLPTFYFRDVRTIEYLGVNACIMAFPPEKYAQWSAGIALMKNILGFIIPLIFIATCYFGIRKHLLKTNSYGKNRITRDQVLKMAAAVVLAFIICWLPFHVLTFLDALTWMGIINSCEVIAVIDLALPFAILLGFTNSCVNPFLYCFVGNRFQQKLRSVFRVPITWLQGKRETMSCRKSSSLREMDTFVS
Method: Membrane Preparation Protocol (hAT2R HEK293 and rAT2R HEK293)
as §1, §2, §3, §4

AT2R [3] = biological target: T1, AT2R (Rattus norvegicus (Rat), UniProt P35351); assay: AT2R ex vivo autoradiography receptor occupancy in rat adrenal sections after oral dosing; design: species or system Sprague Dawley rats; settings: for IC50 / IC80: plasma concentration plotted vs % receptor occupancy, rat; for ex vivo IC50 (TER) / ex vivo IC80 (TER): rat receptor occupancy; for receptor occupancy at 10 mg/kg: oral dose 10 mg/kg; for receptor occupancy at 30 mg/kg: oral dose 30 mg/kg; for receptor occupancy at 100 mg/kg: oral dose 100 mg/kg; for receptor occupancy at 3 mg/kg: oral dose 3 mg/kg
T1 sequence (P35351 whole entry): as above
Method: The ability for a compound to engage its target may be measured by determining compound's receptor occupancy. An ex vivo autoradiography assay was conducted as described herein.
Twenty male Sprague Dawley rats (140-150 gms, Envigo) were maintained under controlled laboratory conditions on a 12 hr light cycle with ad lib access to food and water. […] Following a pre-determined survival time, plasma and adrenals were collected and frozen at −80° C. until analyzed. Frozen 20 μm sections of an adrenal from each animal were collected onto gelatin-coated slides and stored at −80° C. […] The specific ligand binding for each animal is calculated by subtracting the non-specific binding from the total bound.

[4] = Plasma concentration of test compound in the receptor occupancy study; type: in vivo, Sprague Dawley rats; settings: rat
Method: Twenty male Sprague Dawley rats (140-150 gms, Envigo) were maintained under controlled laboratory conditions on a 12 hr light cycle with ad lib access to food and water. On the morning of the experiment, rats were orally dosed with vehicle (1% (w/v) hydroxyethylcellulose, 0.25% (w/v) polysorbate 80, 0.05% (v/v) antifoam 1510-US in purified water) or appropriate doses of test compound (5 mL/kg, n=4 rats/group) using the same vehicle. Following a pre-determined survival time, plasma and adrenals were collected and frozen at −80° C. until analyzed. Frozen 20 μm sections of an adrenal from each animal were collected onto gelatin-coated slides and stored at −80° C. Autoradiography to detect AT2R occupancy (RO) was conducted under cold conditions using methods modified from F. M. J. Heemskerk, et al, Brain Research 677 (1995) 29-38. Total binding was defined by 0.3 nM ^125I-CGP42112 (selective AT2R agonist, Perkin Elmer, Inc) with the addition of 10 μM unlabeled AngII used to define non-specific binding. Following exposure to a phosphoimager plate (BAS TR2025, GE Healthcare), the bound radioactivity is calculated with use of MCID software (Imaging Research, Inc) and calibrated ^125I standards (American Radiolabeled Chemicals, Inc). The specific ligand binding for each animal is calculated by subtracting the non-specific binding from the total bound.

AT2R [5] = biological target: T1, AT2R; assay: Inhibition of C21-induced increase in dermal blood flow (laser Doppler imaging); type: in vivo, Sprague Dawley rats

recombinant human angiotensin-II receptor subtype 2 (hAT2R), sequence (P50052 whole entry): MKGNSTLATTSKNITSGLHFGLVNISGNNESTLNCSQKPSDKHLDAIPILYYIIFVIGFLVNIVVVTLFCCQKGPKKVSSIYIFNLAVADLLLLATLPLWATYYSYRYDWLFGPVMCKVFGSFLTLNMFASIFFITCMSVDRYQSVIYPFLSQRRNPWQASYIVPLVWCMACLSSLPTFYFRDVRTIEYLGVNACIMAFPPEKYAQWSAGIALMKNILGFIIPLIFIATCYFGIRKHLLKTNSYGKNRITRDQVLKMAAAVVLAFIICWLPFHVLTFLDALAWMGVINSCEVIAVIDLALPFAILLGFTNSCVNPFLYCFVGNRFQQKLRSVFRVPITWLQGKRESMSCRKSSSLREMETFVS

SMILES: O=C(N1CCC(CC(=O)N(c2ccccc2)C2CCCC(F)(F)C2)(C(=O)O)CC1)N1CCc2ccccc21 (racemic) [Example 35, 4-[2-(N-(3,3-difluorocyclohexyl)anilino)-2-oxo-ethyl]-1-(indoline-1-carbonyl)piperidine-4-carboxylic acid]
Ki [1]: 2.79 nM | Ki [2]: 37300 nM

SMILES: N#Cc1ccc2c(c1)N(C(=O)N1CCC(CC(=O)N(c3ccccc3)C3CCCC(F)(F)C3)(C(=O)O)CC1)CC2 (racemic) [Example 47, 1-(6-cyanoindoline-1-carbonyl)-4-[2-(N-(3,3-difluorocyclohexyl)anilino)-2-oxo-ethyl]piperidine-4-carboxylic acid]
Ki [1]: 1.34 nM | Ki [2]: 37300 nM

SMILES: CN(C(=O)N1CCC(CC(=O)N(c2cccc(F)c2)C2CCCC(F)(F)C2)(C(=O)O)CC1)c1ccccc1 (racemic) [Example 53, 4-[2-(N-(3,3-difluorocyclohexyl)-3-fluoro-anilino)-2-oxo-ethyl]-1-[methyl(phenyl)carbamoyl]piperidine-4-carboxylic acid]
Ki [1]: 0.342 nM | Ki [2]: 37300 nM

SMILES: O=C(CC1(C(=O)O)CCN(C(=O)C2(c3ccccc3F)CC2)CC1)N(c1ccccc1)C1CCCC(F)(F)C1 (racemic) [Example 66, 4-[2-(N-(3,3-difluorocyclohexyl)anilino)-2-oxo-ethyl]-1-[1-(2-fluorophenyl)cyclopropanecarbonyl]piperidine-4-carboxylic acid]
Ki [1]: 0.619 nM | Ki [2]: 37300 nM

SMILES: CC(C)(C(=O)N1CCC(CC(=O)N(c2ccccc2)C2CCCC(F)(F)C2)(C(=O)O)CC1)c1ccccc1F (racemic) [Example 67, 4-[2-(N-(3,3-difluorocyclohexyl)anilino)-2-oxo-ethyl]-1-[2-(2-fluorophenyl)-2-methyl-propanoyl]piperidine-4-carboxylic acid]
Ki [1]: 2.31 nM | Ki [2]: 37300 nM

SMILES: CCCCCN(C)C(=O)N1CCC(CC(=O)N(c2ccccc2)c2ccccc2)(C(=O)O)CC1 [Example 1, 1-[methyl(pentyl)carbamoyl]-4-[2-oxo-2-(N-phenylanilino)ethyl]piperidine-4-carboxylic acid]
Ki (rAT2R): 28.2 nM | IC50 (AT2R [3]): 5.64 nM | IC80 (AT2R [3]): 22.6 nM | receptor occupancy at 3 mg/kg (AT2R [3]; rat adrenal, read-out: % RO): 23.4% | receptor occupancy at 10 mg/kg (AT2R [3]; rat adrenal, read-out: % RO): 44.6% | receptor occupancy at 30 mg/kg (AT2R [3]; rat adrenal, read-out: % RO): 41.6% | receptor occupancy at 100 mg/kg (AT2R [3]; rat adrenal, read-out: % RO): 54.6% | ex vivo IC50 (TER) (AT2R [3]): 0.200 TER | ex vivo IC80 (TER) (AT2R [3]): 0.800 TER | [plasma, free, nM] ([4]; oral dose 3 mg/kg): 0.729 nM | [plasma, free, nM] ([4]; oral dose 10 mg/kg): 2.25 nM | [plasma, free, nM] ([4]; oral dose 30 mg/kg): 6.42 nM | [plasma, free, nM] ([4]; oral dose 100 mg/kg): 10.4 nM

SMILES: CN(C(=O)N1CCC(CC(=O)N(c2ccccc2)c2ccccc2)(C(=O)O)CC1)c1ccc(F)cc1 [Example 2, 1-[(4-fluorophenyl)-methyl-carbamoyl]-4-[2-oxo-2-(N-phenylanilino)ethyl]piperidine-4-carboxylic acid]
Ki [2]: 37300 nM | [plasma, free, nM] ([4]; oral dose 0.01 mg/kg): 0.0697 nM | [plasma, free, nM] ([4]; oral dose 0.03 mg/kg): 0.0403 nM | [plasma, free, nM] ([4]; oral dose 0.3 mg/kg): 0.153 nM | [plasma, free, nM] ([4]; oral dose 3 mg/kg): 0.772 nM

SMILES: CN(C(=O)N1CCC(CC(=O)N(c2ccccc2)c2ccc(F)cc2)(C(=O)O)CC1)c1ccc(F)cc1 [compound 30, 4-[2-(N-(4-fluorophenyl)anilino)-2-oxo-ethyl]-1-[(4-fluorophenyl)-methyl-carbamoyl]piperidine-4-carboxylic acid]
Ki (rAT2R): 0.6 nM | receptor occupancy at 0.01 mg/kg (AT2R [3]; rat adrenal, oral dose 0.01 mg/kg, read-out: % RO): 30.4% | receptor occupancy at 0.03 mg/kg (AT2R [3]; rat adrenal, oral dose 0.03 mg/kg, read-out: % RO): 3.46% | receptor occupancy at 0.3 mg/kg (AT2R [3]; rat adrenal, oral dose 0.3 mg/kg, read-out: % RO): 45.6% | receptor occupancy at 3 mg/kg (AT2R [3]; rat adrenal, read-out: % RO): 88.7%

Second part, the molecule after the results:

Ki [1]: 1.03 nM | Ki [2]: 37300 nM
SMILES: O=C(N1CCC(CC(=O)N(c2ccccc2)C2CCCC(F)(F)C2)(C(=O)O)CC1)N1CCc2ccccc21 (single isomer, unassigned) [Example 35B, 4-[2-(N-(3,3-difluorocyclohexyl)anilino)-2-oxo-ethyl]-1-(indoline-1-carbonyl)piperidine-4-carboxylic acid]

Ki [1]: 1.28 nM | Ki [2]: > 49900 nM | Ki (rAT2R): 0.67 nM | IC50 (AT2R [3]): 1.58 nM | IC80 (AT2R [3]): 3.82 nM | ex vivo IC50 (TER) (AT2R [3]): 2.358 TER | ex vivo IC80 (TER) (AT2R [3]): 5.701 TER
SMILES: O=C(CC1(C(=O)O)CCN(c2ccccn2)CC1)N(c1ccccc1)C1CCCC(F)(F)C1 (single isomer, unassigned) [Example 74B, 4-(2-((3,3-difluorocyclohexyl)(phenyl)amino)-2-oxoethyl)-1-(pyridin-2-yl)piperidine-4-carboxylic acid]

Ki (rAT2R): 4.47 nM | IC50 (AT2R [3]): 0.483 nM | IC80 (AT2R [3]): 3.03 nM | receptor occupancy at 10 mg/kg (AT2R [3]; rat adrenal, read-out: % RO): 17.3% | receptor occupancy at 30 mg/kg (AT2R [3]; rat adrenal, read-out: % RO): 84.7% | receptor occupancy at 100 mg/kg (AT2R [3]; rat adrenal, read-out: % RO): 93.7% | ex vivo IC50 (TER) (AT2R [3]): 0.108 TER | ex vivo IC80 (TER) (AT2R [3]): 0.678 TER | [plasma, free, nM] ([4]; oral dose 1 mg/kg): 6.39 nM | [plasma, free, nM] ([4]; oral dose 3 mg/kg): 18.9 nM | [plasma, free, nM] ([4]; oral dose 30 mg/kg): 6.28 nM | [plasma, free, nM] ([4]; oral dose 100 mg/kg): 15.7 nM | inhibition at 1 mg/kg (AT2R [5]; dose 1 mg/kg, C21-induced increase in dermal blood flow): 7.8% | inhibition at 3 mg/kg (AT2R [5]; dose 3 mg/kg, C21-induced increase in dermal blood flow): 47.2% | inhibition at 10 mg/kg (AT2R [5]; dose 10 mg/kg, C21-induced increase in dermal blood flow): 67.6% | inhibition at 30 mg/kg (AT2R [5]; C21-induced increase in dermal blood flow): 86.9% | inhibition at 30 mg/kg (AT2R [5]; second, unlabelled column under % Inhibition): 97.3%
SMILES: COc1ccc2c(c1OCc1ccccc1)C[C@@H](C(=O)O)N(C(=O)C(c1ccccc1)c1ccccc1)C2 [EMA401, Olodanrigan, reference compound]
